# Where “and” joins values, the source holds several entries; their conditions need not be identical. Equal entries are not always repeated. Where two headings read alike, the source gives them in different places.
# What was measured:
# [1] = system: NSCLC; conditions: patients previously screened for EGFR expression; cited from earlier work
# [2] = system: NSCLC patients; experiment: Objective response (RECIST) of NSCLC patients in the gefitinib expanded access trial, by demographic and molecular subgroup; type: in vivo, human
# Protocol: (§1) Specimens. […] Chart review and study analyses were approved by the RUMC Institutional Review Board. The diagnosis of NSCLC in the archival material was obtained from pathology reports and confirmed by histologic evaluation before further analysis. Age, gender, smoking status and disease grade were established from chart review and patient report at registration. Smoking status was defined by lifetime consumption of <100 cigarettes. Response was assessed according to RECIST criteria of measurable and non-measurable lesions. […] Progressive disease was defined by relapse within 70 days of treatment.
# (§2) In Situ Hybridization. For copy number analyses by FISH, EGFR and centromere 7 (CEN7) probes were utilized to examine EGFR/cell, CEN7/cell and EGFR/CEN 7. A probe targeting α satellite repeat sequences near the centromere of chromosome 7 was used to indicate CEN 7 copy number (SpectrumGreen™ CEP® 7, Abbott Molecular Inc.). Specimen slides were prepared using either the Vysis Paraffin Pretreatment II or III kits (Abbott Molecular Inc.). The prepared specimen slides were hybridized with two-color FISH probe solutions (SpectrumOrange™ LSI® EGFR, Spectrum-Green CEP 7; Abbott Molecular Inc.) in a HYBrite™ automated co-denaturation oven (Abbott Molecular Inc.). The slides were placed on the oven surface and 10 μL probe solution was layered over the tissue section. A cover slip was applied over the probe solution and sealed to the slide with rubber cement. After denaturation at 73° C. for 5 minutes, the probe was hybridized at 37° C. for 16-18 hr. Following hybridization and removal of the rubber cement seal, the slides were placed in room-temperature 2×SSC (SSC=0.3 M NaCl, 15 mM sodium citrate), 0.3% Nonidet P40 (NP40) for 2-5 min to detach the cover slips. The slides were then immersed in 73° C. 2×SSC, 0.3% NP40 for 2 min to remove nonspecifically bound probe and then were allowed to dry in the dark. DAPI I antifade solution (Abbott Molecular Inc.) was applied to the specimen for visualization of the nuclei. […] Over-digested or under-digested specimens were reprocessed as described previously.
# (§3) Typically, 30-90 (median 80) cells were enumerated in each specimen. The mean number of signals per cell was calculated by totaling the number of signals from each cell for EGFR and CEN 7, and dividing by the number of cells counted to provide EGFR/cell and CEN 7/cell, respectively. EGFR/cell was divided by CEN 7/cell signals per cell to yield EGFR/CEN7. Other FISH parameters used in developing selection criteria are defined as follows. The EGFR % gain or CEN 7% gain was calculated as the percentage of cells with more than two EGFR or CEN 7 signals, respectively. […] When a slide was counted multiple times, counts were combined and used for recalculating the ratios and % gain.
# (§4) Optimal cutoff points for defining high ratios or high % gains were selected by first generating cutoffs from the mean minus 1.5 standard deviations to the mean plus 3.5 standard deviations, in 0.1 standard deviation increments, for each parameter (ratios and % gains), using the mean and standard deviations of the non responding patients. Each high and low ratios and % gains at each cutoff were compared with objective response and survival (greater than or less than 1 year survival) in contingency tables. Cutoffs with the lowest chi-square probabilities were selected for further analysis.
# (§5) Immunohistochemistry. Paraffin sections (5 μm, freshly cut) were deparaffinized and rehydrated by standard technique. A microwave antigen retrieval method was then carried out in citrate buffer. The tissue was stained using a Ventana ES Histo-stainer (Ventana Medical Systems, Tucson, Ariz.) using supplied diaminobenzidine and avidin-biotin conjugate immunoperoxidase chemistry.
# Immunostaining frequency of all tumor cells on each slide was estimated on a scale of 0 to 4 without knowledge of clinical patient data.
# [3] = system: NSCLC patients; experiment: Overall survival (Kaplan-Meier) of NSCLC patients in the gefitinib expanded access trial, by molecular subgroup; type: in vivo, human
# Protocol: as §1, §2, §3, §4
# Cutpoints were also assigned to indicate loss of chromosome 7, either monosomy or nullisomy.
# as §5
# [4] = system: NSCLC; conditions: phase II trials; cited from earlier work
# [5] = system: NSCLC; conditions: phase III trial; cited from earlier work
smiles,measurement,setting,value
"C#Cc1cccc(Nc2ncnc3cc(OCCOC)c(OCCOC)cc23)c1 [Erlotinib, erlotinib]",response rate,[1],12.3%
COc1cc2ncnc(Nc3ccc(F)c(Cl)c3)c2cc1OCCCN1CCOCC1 [gefitinib],"Objective Response (partial and complete, RECIST), number of patients (%)","[2]; 250 mg daily gefitinib, Total, 81 patients",12 (15) %
same,"Objective Response, number of patients (%)","[2]; 250 mg daily, Age <60 years",8 (13) %
same,"Objective Response, number of patients (%)","[2]; 250 mg daily, Age ≧60 years",4 (21) %
same,"Objective Response, number of patients (%)","[2]; 250 mg daily, Gender Female",7 (16) %
same,"Objective Response, number of patients (%)","[2]; 250 mg daily, Gender Male",5 (14) %
same,"Objective Response, number of patients (%)","[2]; 250 mg daily, Histopathological subtype Bronchoalveolar, adenocarcinoma",10 (18) %
same,"Objective Response, number of patients (%)","[2]; 250 mg daily, Histopathological subtype Other",2 (8) %
same,"Objective Response, number of patients (%)","[2]; 250 mg daily, Never smoked",7 (58) %
same,"Objective Response, number of patients (%)","[2]; 250 mg daily, Performance status 0 to 1",6 (13) %
same,"Objective Response, number of patients (%)","[2]; 250 mg daily, Performance status 2 to 4",6 (18) %
same,"Objective Response, number of patients (%)","[2]; 250 mg daily, Prior chemotherapy None",2 (14) %
same,"Objective Response, number of patients (%)","[2]; 250 mg daily, Prior chemotherapy One",7 (18) %
same,"Objective Response, number of patients (%)","[2]; 250 mg daily, Prior chemotherapy Two or more",3 (5) %
same,"Objective Response, number of patients (%)","[2]; 250 mg daily, Smoking status Yes",5 (7) %
same,Overall response,"[2]; 81 patients, 250 mg daily gefitinib",15%
same,"Objective Response, number of patients (%)",[2]; CEN 7/cell <3.6,7 (11) %
same,"Objective Response, number of patients (%)",[2]; CEN 7/cell <3.8,7 (11) %
same,"Objective Response, number of patients (%)",[2]; CEN 7/cell <3.8 and >2.0 (“normal”),7 (13) %
same,"Objective Response, number of patients (%)",[2]; CEN 7/cell <4,7 (11) %
same,"Objective Response, number of patients (%)",[2]; CEN 7/cell >3.8 or <2.0 (aneusomy),5 (19) %
same,"Objective Response, number of patients (%)",[2]; CEN 7/cell ≧3.6,5 (28) %
same,"Objective Response, number of patients (%)",[2]; CEN 7/cell ≧3.8,5 (31) %
same,"Objective Response, number of patients (%)",[2]; CEN 7/cell ≧4,5 (36) %
same,"Objective Response, number of patients (%)",[2]; EGFR % gain <75%,5 (9) %
same,"Objective Response, number of patients (%)",[2]; EGFR % gain ≧75%,7 (29) %
same,"Objective Response, number of patients (%)",[2]; EGFR IHC 0,3 (9) %
same,"Objective Response, number of patients (%)",[2]; EGFR IHC 1+ to 4+,9 (20) %
same,"Objective Response, number of patients (%)",[2]; EGFR/CEN 7 % gain <34%,3 (7) %
same,"Objective Response, number of patients (%)",[2]; EGFR/CEN 7 % gain ≧34%,9 (23) %
same,"Objective Response, number of patients (%)",[2]; EGFR/CEN 7 <1,1 (5) %
same,"Objective Response, number of patients (%)",[2]; EGFR/CEN 7 ≧1,11 (19) %
same,"Objective Response, number of patients (%)",[2]; EGFR/cell ≦6 (FISH),7 (10) %
same,"Objective Response, number of patients (%)",[2]; EGFR/cell ≧6 (FISH),5 (46) %
same,"Objective Response, number of patients (%)","[2]; PTEN IHC Absent, 73 patients analyzed",3 (7) %
same,"Objective Response, number of patients (%)","[2]; PTEN IHC Present (1+ to 4+), 73 patients analyzed",8 (30) %
same,patients with complete response,[2]; of 81 patients,2 patients
same,patients with partial response,[2]; of 81 patients,10 patients
same,patients with stable disease,[2]; of 81 patients,Thirty-six
same,"Objective Response, number of patients (%)","[2]; pAKT IHC Absent, 73 patients analyzed",4 (10) %
same,"Objective Response, number of patients (%)","[2]; pAKT IHC Present (1+ to 4+), 73 patients analyzed",7 (21) %
same,Median Survival,[3]; CEN 7 % ≧4 copies <52%,6.9 Months
same,Median Survival,"[3]; CEN7 % ≧4 copies ≧52%, pAKT+",39.4 months
same,Median Survival,"[3]; CEN7 % ≧4 copies, pAKT: Any negative",5.9 months
same,Median Survival,[3]; CEN 7/cell <3.6 (non-polysomy),6.0 Months
same,Median Survival,[3]; CEN 7/cell <3.6 and >2.0 (“normal”),5.8 Months
same,Median Survival,[3]; CEN 7/cell >3.6 or <2.0 (aneusomy),15.3 Months
same,Median Survival,[3]; CEN 7/cell ≧3.6 (polysomy),16.2 Months
same,Median Survival,"[3]; CEN 7/cell, pAKT: Any negative",5.9 months
same,Median Survival,"[3]; CEN 7 ≧3.6 (polysomy), pAKT+",24.5 months
same,Median Survival,[3]; EGFR % gain <75%,7.9 Months
same,Median Survival,[3]; EGFR % gain ≧75%,9.4 Months
same,Median Survival,[3]; EGFR % gain ≧75% cells and pAKT+,24.5 months
same,Median Survival,"[3]; EGFR % gain, pAKT: Any negative",6.6 months
same,Median Survival,"[3]; EGFR Expression, IHC Not detected",8.5 Months
same,Median Survival,"[3]; EGFR Expression, IHC Present",7.1 Months
same,Median Survival,[3]; EGFR/CEN 7 % gain <34%,6.0 Months
same,Median Survival,[3]; EGFR/CEN 7 % gain ≧3.4%,10.3 Months
same,Median Survival,"[3]; EGFR/CEN7 % gain, PTEN: Any negative",6.6 months
same,Median Survival,"[3]; PTEN Expression, IHC Not detected",5.9 Months
same,Median Survival,"[3]; PTEN Expression, IHC Present",9.3 Months
same,Median Survival,"[3]; pAKT Expression, IHC Not detected",5.8 Months
same,Median Survival,"[3]; pAKT Expression, IHC Present",10.5 Months
same,response rate,[4],18.4% and 11.8%
same,response rate,[5],8-13%
same,survival benefit,[5],no significant survival benefit
